# Measurements reported in ChEMBL document CHEMBL4038351, “Structure-Guided Development of Covalent and Mutant-Selective Pyrazolopyrimidines to Target T790M Drug Resistance in Epidermal Growth Factor Receptor” (J Med Chem, 2017).
# Calls of active or inactive are those of the source. The rule behind the calls is not given here.
# Key:
# HCC827 [1] = test: cells; type: functional, cell-based; conditions: Homo sapiens
# Description: Antiproliferative activity against human HCC827 cells harboring EGFR-delE746_A750 mutant incubated for 96 hrs measured on day 5 by CellTiterGlo assay
# A-431 [2] = test: Antiproliferative activity against human A431 cells expressing wild type EGFR at 30 uM incubated for 96 hrs measured on day 5 by CellTiterGlo assay; type: cell-based; conditions: a-431, 96 h
# NCI-H1975 [3] = test: Antiproliferative activity against human NCI-H1975 cells harboring EGFR-L858R/T790M double mutant at 30 uM incubated for 96 hrs measured on day 5 by CellTiterGlo assay; type: functional, cell-based
# A549 [4] = test: Antiproliferative activity against human A549 cells harboring KRAS-G12S mutant at 30 uM incubated for 96 hrs measured on day 5 by CellTiterGlo assay; type: cell-based; conditions: a549, 96 h
# [5] = target: Epidermal growth factor receptor (Homo sapiens, UniProt P00533)
# [6] = target: Epidermal growth factor receptor (Homo sapiens, UniProt P00533, L858R)
# [7] = target: Epidermal growth factor receptor (Homo sapiens, UniProt P00533, L858R/T790M)
# A-431 [8] = test: cells; type: ADME, cell-based; conditions: Homo sapiens
# Description: Antiproliferative activity against human A431 cells expressing wild type EGFR incubated for 96 hrs measured on day 5 by CellTiterGlo assay
# NCI-H1975 [9] = test: cells; type: functional, cell-based; conditions: Homo sapiens
# A549 [10] = test: cells; type: ADME, cell-based; conditions: Homo sapiens
# Description: Antiproliferative activity against human A549 cells harboring KRAS-G12S mutant incubated for 96 hrs measured on day 5 by CellTiterGlo assay
# [11] = Permeability of the compound at 500 uM incubated for 20 hrs by PAMPA; type: physicochemical
# [12] = Apparent permeability across apical to basolateral side in human Caco2 cells at 5 uM incubated for 2 hrs; type: ADME, cell-based, Caco-2; conditions: for Papp A→B at 2 h, 5 µM: Caco-2
# [13] = Apparent permeability across basolateral to apical side in human Caco2 cells at 5 uM incubated for 2 hrs; type: ADME, cell-based, Caco-2; conditions: for Papp B→A at 2 h, 5 µM: Caco-2
# [14] = Metabolic stability in human plasma at 5 uM incubated for 1 hr by LC-MS method; type: ADME, cell-free; conditions: read-out: Stability
# [15] = Metabolic stability in mouse plasma at 5 uM incubated for 1 hr by LC-MS method; type: ADME, cell-free; conditions: read-out: Stability
# [16] = Fraction unbound in mouse 100% plasma at 5 uM incubated for 6 hrs by LC-MS method; type: ADME, cell-free
# [17] = Kinetic solubility in Hepes buffer at 500 uM at pH 7.4 after 90 mins; type: physicochemical; conditions: read-out: Kinetic_solubility
# in vitro [18] = conditions: mouse, liver microsomes
# in vitro [19] = conditions: human, liver microsomes
# HCC827 [20] = test: Antiproliferative activity against human HCC827 cells harboring EGFR-delE746_A750 mutant at 30 uM incubated for 96 hrs measured on day 5 by CellTiterGlo assay; type: functional, cell-based
# [21] = tested on: Epidermal growth factor receptor (Homo sapiens), P00533 [L858R,T790M]; test: Covalent binding affinity to human recombinant GST-tagged EGFR L858R/T790M double mutant expressed in baculovirus expression system by mass spectrometry
SMILES,EC50 (HCC827 [1]) [µM],Activity (A549 [4]),IC50 [5] [µM],IC50 [6] [µM],IC50 [7] [µM],EC50 (A-431 [8]) [µM],EC50 (NCI-H1975 [9]) [µM],EC50 (A549 [10]) [µM],other results
C=CC(=O)N1CCC[C@@H](n2ncc3c(N)ncnc32)C1,9.9,Non-Toxic,6.9,2.5,1.6,–,–,–,Activity (A-431 [2]): Non-Toxic; Activity (NCI-H1975 [3]): inactive
C#Cc1nn([C@@H]2CCCN(C(=O)C=C)C2)c2ncnc(N)c12,2.05,–,1.5,0.96,0.69,29.6,16.2,28.3,–
C=CC(=O)N1CCC[C@@H](n2nc(-c3ccc(F)cc3)c3c(N)ncnc32)C1,–,–,0.13,0.03,0.28,–,–,–,–
C=CC(=O)N1CCC[C@@H](n2nc(-c3ccc(N(C)C)c4ccccc34)c3c(N)ncnc32)C1,2.13,Non-Toxic,0.81,0.27,0.21,24.5,2.67,–,–
CCC(=O)N1CCC[C@@H](n2nc(-c3cccc(F)c3)c3c(N)ncnc32)C1,22.3,Non-Toxic,> 10,3.4,> 10,–,–,–,Activity (A-431 [2]): Non-Toxic; Activity (NCI-H1975 [3]): inactive
CCC(=O)N1CCC[C@@H](n2nc(-c3ccc(C(F)(F)F)cc3)c3c(N)ncnc32)C1,23.6,Non-Toxic,6.5,5.9,> 10,–,–,–,Activity (A-431 [2]): Non-Toxic; Activity (NCI-H1975 [3]): inactive
CCC(=O)N1CCC[C@@H](n2nc(-c3ccc(F)cc3)c3c(N)ncnc32)C1,25.9,Non-Toxic,> 10,5,> 10,–,–,–,Activity (A-431 [2]): Non-Toxic; Activity (NCI-H1975 [3]): inactive
C=CC(=O)Nc1cccc(Oc2nc(Nc3ccc(N4CCN(C)CC4)cc3OC)ncc2Cl)c1,0.02,–,–,–,–,–,0.09,3.99,–
C=CC(=O)N1CCC[C@@H](n2nc(Cc3ccccc3)c3c(N)ncnc32)C1,0.15,Non-Toxic,0.02,0.003,0.01,19.9,0.69,–,–
C=CC(=O)N1CCC[C@@H](n2nc(C#CC3CCCC3)c3c(N)ncnc32)C1,1.15,–,0.75,0.06,1.4,10.9,8.27,27.1,–
C=CC(=O)N1CCC[C@@H](n2nc(C3CC3)c3c(N)ncnc32)C1,0.31,Non-Toxic,0.7,0.11,0.22,28.1,5.83,–,–
C=CC(=O)N1CCC[C@@H](n2nc(-c3ccc(C(F)(F)F)cc3)c3c(N)ncnc32)C1,0.16,Non-Toxic,0.06,0.06,0.27,8.87,1.38,–,–
CN(C)C/C=C/C(=O)N1CCC[C@@H](n2nc(-c3cccc(C(F)(F)F)c3)c3c(N)ncnc32)C1,6.39,Non-Toxic,7.3,1,6.1,13.7,20.6,–,–
C=CC(=O)Nc1cccc(Nc2nc(Nc3ccc(N4CCN(C(C)=O)CC4)cc3OC)ncc2C(F)(F)F)c1 [ROCILETINIB],0.045,–,–,–,–,–,0.1,–,"permeability [11]: 88%; Papp A→B at 2 h, 5 µM [12]: 0.05 ×10⁻⁶ cm/s; Papp B→A at 2 h, 5 µM [13]: 0.068 ×10⁻⁶ cm/s; remaining at 1 h, 5 µM [14]: 78%; remaining at 1 h, 5 µM [15]: 75%; fraction unbound at 6 h, 5 µM [16]: 0.01; solubility kinetic at 1.5 h, 500 µM [17]: 10 µM; microsomal CLint at 50 min, 3 µM (in vitro [18]): 81 µL/min/mg; microsomal CLint at 50 min, 3 µM (in vitro [19]): 5.1 µL/min/mg"
C=CC(=O)N1CCC[C@@H](n2nc(-c3ccc(Oc4ccccc4)cc3)c3c(N)ncnc32)C1 [IBRUTINIB],0.45,Non-Toxic,–,–,–,2.38,0.64,–,"permeability [11]: 38%; Papp ([12]; caco-2, 2 h, 5 µM): 40 ×10⁻⁸ cm/s; Papp ([13]; caco-2, 2 h, 5 µM): 0.9 ×10⁻⁸ cm/s; remaining at 1 h, 5 µM [14]: 80%; remaining at 1 h, 5 µM [15]: 96%; fraction unbound at 6 h, 5 µM [16]: 0.01; solubility kinetic at 1.5 h, 500 µM [17]: 57 µM"
C=CC(=O)N1CCC[C@@H](n2nc(C#CCC3CCCC3)c3c(N)ncnc32)C1,3.15,–,0.75,0.12,0.92,8.77,6.93,19.9,–
C=CC(=O)N1CCC[C@@H](n2nc(-c3cccc(C(F)(F)F)c3)c3c(N)ncnc32)C1,0.65,–,–,0.03,0.22,16,4.16,22.2,"permeability [11]: 76%; remaining at 1 h, 5 µM [14]: 96%; remaining at 1 h, 5 µM [15]: 99%; fraction unbound at 6 h, 5 µM [16]: 0.09; solubility kinetic at 1.5 h, 500 µM [17]: 427 µM; microsomal CLint at 50 min, 3 µM (in vitro [18]): 2770 µL/min/mg; microsomal CLint at 50 min, 3 µM (in vitro [19]): 578 µL/min/mg"
C=CC(=O)N1CCC[C@@H](n2nc(-c3ccccc3)c3c(N)ncnc32)C1,0.07,–,0.14,0.01,0.24,12.7,3.67,21.7,"permeability [11]: 59%; remaining at 1 h, 5 µM [14]: 97%; remaining at 1 h, 5 µM [15]: 91%; fraction unbound at 6 h, 5 µM [16]: 0.33; solubility kinetic at 1.5 h, 500 µM [17]: 461 µM; microsomal CLint at 50 min, 3 µM (in vitro [18]): 924 µL/min/mg; microsomal CLint at 50 min, 3 µM (in vitro [19]): 122 µL/min/mg"
CN(C)C/C=C/C(=O)N1CCC[C@@H](n2nc(-c3ccccc3)c3c(N)ncnc32)C1,1.19,Non-Toxic,3,0.22,6.6,29.8,29.9,–,–
CCC(=O)N1CCC[C@@H](n2nc(-c3cccc(C(F)(F)F)c3)c3c(N)ncnc32)C1,–,Non-Toxic,> 10,> 10,> 10,–,–,–,Activity (A-431 [2]): Non-Toxic; Activity (HCC827 [20]): inactive; Activity (NCI-H1975 [3]): inactive
CN(C)C/C=C/C(=O)Nc1cc2c(Nc3ccc(F)c(Cl)c3)ncnc2cc1O[C@H]1CCOC1 [AFATINIB],< 0.014,–,–,–,–,0.2,0.6,1.49,–
C=CC(=O)N1CCC[C@@H](n2nc(-c3ccc(O)cc3)c3c(N)ncnc32)C1,0.07,–,–,–,–,4.17,1.84,20,–
C=CC(=O)N1CCC[C@@H](n2nc(-c3cccc(F)c3)c3c(N)ncnc32)C1,0.07,Non-Toxic,0.13,0.01,0.23,11.7,3.37,–,–
C=CC(=O)N1CCC[C@@H](n2nc(-c3cccc4ccccc34)c3c(N)ncnc32)C1,0.5,Non-Toxic,0.06,–,0.002,29.4,0.49,–,"permeability [11]: 82%; remaining at 1 h, 5 µM [14]: 100%; remaining at 1 h, 5 µM [15]: 90%; fraction unbound at 6 h, 5 µM [16]: 0.15; solubility kinetic at 1.5 h, 500 µM [17]: 38 µM; Activity [21]: Active; microsomal CLint at 50 min, 3 µM (in vitro [18]): 2770 µL/min/mg; microsomal CLint at 50 min, 3 µM (in vitro [19]): 770 µL/min/mg"
C=CC(=O)Nc1cc(Nc2nccc(-c3cn(C)c4ccccc34)n2)c(OC)cc1N(C)CCN(C)C [OSIMERTINIB],[…],–,–,–,–,–,[…],[…],"permeability [11]: 112%; Papp A→B at 2 h, 5 µM [12]: […]; Papp B→A at 2 h, 5 µM [13]: […]; remaining at 1 h, 5 µM [14]: […]; remaining at 1 h, 5 µM [15]: […]; fraction unbound at 6 h, 5 µM [16]: 0.03; solubility kinetic at 1.5 h, 500 µM [17]: 265 µM; microsomal CLint at 50 min, 3 µM (in vitro [18]): […]; microsomal CLint at 50 min, 3 µM (in vitro [19]): 4.1 µL/min/mg"
C=CC(=O)N1CCC[C@@H](n2nc(-c3ccc(F)c4ccccc34)c3c(N)ncnc32)C1,0.43,Non-Toxic,–,–,–,12.8,0.36,–,–
C=CC(=O)N1CCC[C@@H](n2nc(-c3cnc4[nH]ccc4c3)c3c(N)ncnc32)C1,< 0.014,–,0.01,–,0.003,1.39,0.28,3.45,"permeability [11]: 27%; remaining at 1 h, 5 µM [14]: 98%; remaining at 1 h, 5 µM [15]: 96%; fraction unbound at 6 h, 5 µM [16]: 0.37; solubility kinetic at 1.5 h, 500 µM [17]: 457 µM; microsomal CLint at 50 min, 3 µM (in vitro [18]): 495 µL/min/mg; microsomal CLint at 50 min, 3 µM (in vitro [19]): 108 µL/min/mg"
CCC(=O)N1CCC[C@@H](n2nc(-c3ccccc3)c3c(N)ncnc32)C1,–,Non-Toxic,7.3,4.7,> 10,–,–,–,Activity (A-431 [2]): Non-Toxic; Activity (HCC827 [20]): inactive; Activity (NCI-H1975 [3]): inactive
